Measured values as given in patent publication EP4512427A1, “ANTIBODY-DRUG CONJUGATES BASED ON MOLECULAR GLUE DEGRADERS AND USES THEREOF” (Mablink Bioscience, priority 2023, dated 2025).

Assays:
[1] = test system: MDA-MB-231; assay: In vitro cytotoxicity assay (MTT); format: cell-based, human; settings: Homo sapiens, MDA-MB-231, 144 h, 6 days incubation
Procedure: (§1) In vitro cytotoxicity of compounds of the disclosure was assessed on several cancerous human cell lines. Cells were plated in 96-well plates at an appropriate density depending on the cell line (between 1000 and 10 000 cells/well in 100µL of appropriate culture media) and incubated at 37°C for 24 hours. Serial dilutions of the tested compound previously dissolved in culture media (50µL) were added, and incubation was carried at 37°C out for 6 days. MTT (5mg/mL in PBS, 20µL, Sigma-Aldrich) was added into the wells, and incubation was continued for 1 to 4 hours at 37°C. Culture media was then carefully removed, and well content was homogeneously dissolved with acidified isopropanol. Absorbance values were measured on a microplate reader using a wavelength of 570 nm (with a reference wavelength of 690 nm). The IC50 concentration values compared to untreated control cells were determined using inhibition dose response curve fitting (GraphPad Prism 9). Exatecan mesylate (cat#HY-13631A) and CR8 (CAS# 294646-77-8; cat#HY-18340) were purchased from MedChemExpress (China).

[2] = test system: NCI-N87; assay: In vitro cytotoxicity assay (MTT); format: cell-based, human; settings: Homo sapiens, NCI-N87, 144 h, 6 days incubation
Procedure: as §1

[3] = test system: JIMT-1; assay: In vitro cytotoxicity assay (MTT); format: cell-based, human; settings: Homo sapiens, 144 h, 6 days incubation
Procedure: as §1

[4] = test system: BT-474; assay: In vitro cytotoxicity assay (MTT); format: cell-based, human; settings: Homo sapiens, BT-474, 144 h, BT-474; 6 days incubation, MTT
Procedure: as §1

[5] = test system: SKBR-3; assay: In vitro cytotoxicity assay (MTT); format: cell-based, human; settings: Homo sapiens, SK-BR-3, 144 h, 6 days incubation
Procedure: as §1

[6] = test system: MDA-MB-453; assay: In vitro cytotoxicity assay (MTT); format: cell-based, human; settings: Homo sapiens, MDA-MB-453, 144 h, 6 days incubation
Procedure: as §1

[7] = in vitro; settings: PAMPA, pH 7.4
Procedure: Stock solutions of compounds of the invention were prepared in dimethyl sulfoxide (DMSO) to a final concentration of 10 mM. Each stock solution was diluted to 50 µM in pH 7.4 Prisma HT buffer (pION) in the presence of 10% MeOH (v/v). 200 µL were added to each well of the donor plate in quintuplicate. […] The acceptor filter plate was carefully placed on top of the donor plate to form a "sandwich." The sandwich was incubated at 25°C for 5 h, at 300 rpm. UV-vis spectra of the solutions in the blank, reference, acceptor, and donor plates were measured using a Tecan Infinite 200 PRO M Nano Plus microplate reader.

[8] = biological target: T1, MDR1 (Homo sapiens, UniProt P08183); assay: MDR1 efflux substrate assay in MDCK-MDR1; format: in vitro ADME; settings: for efflux ratio at 60 min, 5 µM / Papp A→B at 60 min, 5 µM / Papp B→A at 60 min, 5 µM: dog; for efflux ratio at 60 min, 5 µM: MDCK-MDR1, pH 7.4, read-out: Efflux ratio B/A; for Papp A→B at 60 min, 5 µM / Papp B→A at 60 min, 5 µM: MDCK-MDR1, 5µM, pH 7.4; for Papp A→B at 60 min, 5 µM: read-out: Papp A (donor) to B (acceptor); for Papp B→A at 60 min, 5 µM: read-out: Papp B (acceptor) to A (donor)
T1 construct: host or cells: MDCK-MDR1 (Preadyport)
Procedure: (§2) MDR1 and BCRP efflux substrate assays were conducted in MDCK-MDR1 and MDCK-BCRP in vitro models (Preadyport™, Solvo Biotech) at Symeres (Nederland). Compound of the invention (donor well concentration of 5µM) were incubated in cell monolayer 24-transwell Preadyport system, using Preadyport recommended pH 7.4 assay buffer (donor and receiver wells). After 60 min of incubation (no shaking), samples are collected and suspended into triple volume of 66% cold acetonitrile. Samples are stored at -20°C until thawed, centrifuged and analyzed by LC-MS. Quinidine was used a positive control for the MDR1 assay, and prazosin was used as a positive control for the BCRP assay. Exatecan was used as a control, known not to be an MDR1 substrate. Residual DMSO content from compounds stock solutions was below 1% (v/v). The assay was performed in duplicate. The quantification of test compounds in donor or receptor compartment is conducted using relative LC/MS peak areas (samples of initial incubation solutions are used as a single point calibrator), without any spiked standard samples. The data is used for estimating apparent permeability (Papp) and calculation of efflux ratio.

[9] = biological target: T2, BCRP (Homo sapiens, UniProt Q9UNQ0); assay: BCRP efflux substrate assay in MDCK-BCRP; format: in vitro ADME; settings: for efflux ratio at 60 min, 5 µM / Papp A→B at 60 min, 5 µM / Papp B→A at 60 min, 5 µM: dog, pH 7.4, MDCK-BCRP; for efflux ratio at 60 min, 5 µM: read-out: Efflux ratio B/A; for Papp A→B at 60 min, 5 µM: read-out: Papp A (donor) to B (acceptor); for Papp B→A at 60 min, 5 µM: read-out: Papp B (acceptor) to A (donor)
T2 construct: host or cells: MDCK-BCRP (Preadyport)
T2 sequence (Q9UNQ0 1-655): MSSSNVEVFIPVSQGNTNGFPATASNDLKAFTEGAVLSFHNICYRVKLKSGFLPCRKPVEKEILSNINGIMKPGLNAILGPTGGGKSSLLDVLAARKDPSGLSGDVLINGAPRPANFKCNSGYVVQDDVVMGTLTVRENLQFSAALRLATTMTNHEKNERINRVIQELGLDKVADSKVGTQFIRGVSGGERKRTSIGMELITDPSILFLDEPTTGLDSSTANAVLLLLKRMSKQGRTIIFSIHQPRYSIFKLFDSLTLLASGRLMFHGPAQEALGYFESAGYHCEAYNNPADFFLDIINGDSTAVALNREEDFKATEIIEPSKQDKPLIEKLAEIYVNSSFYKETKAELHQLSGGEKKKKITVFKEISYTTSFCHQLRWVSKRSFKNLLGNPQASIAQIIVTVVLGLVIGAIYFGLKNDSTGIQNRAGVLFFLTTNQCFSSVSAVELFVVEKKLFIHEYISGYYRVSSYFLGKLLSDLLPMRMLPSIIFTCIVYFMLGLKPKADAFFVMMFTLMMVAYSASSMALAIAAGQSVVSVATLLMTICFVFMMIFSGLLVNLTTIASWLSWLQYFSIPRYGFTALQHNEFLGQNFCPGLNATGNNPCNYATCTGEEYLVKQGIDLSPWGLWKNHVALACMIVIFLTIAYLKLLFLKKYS
Procedure: as §2

[10] = test system: KB-1; assay: In vitro cytotoxicity assay (MTT); format: cell-based; settings: Homo sapiens, KB16, 144 h, 6 days incubation
Procedure: as §1

[11] = test system: BXPC3; assay: In vitro cytotoxicity assay (MTT); format: cell-based; settings: Homo sapiens, BXPC-3, 144 h, 6 days incubation
Procedure: as §1

[12] = test system: HT-29; assay: In vitro cytotoxicity assay (MTT); format: cell-based; settings: Homo sapiens, 144 h, 6 days incubation
Procedure: as §1

[13] = test system: MCF-7; assay: In vitro cytotoxicity assay (MTT); format: cell-based; settings: Homo sapiens, MCF7, 144 h, 6 days incubation
Procedure: as §1

[14] = test system: CycK; assay: CycK protein quantification by Western Blot; format: cell-based, human; settings: JIMT-1 cells, 1µM, 2h
Procedure: 1×10^6 JIMT-1 cells were plated in 3mL of DMEM/FBS 90:10 (v/v) in 6-well plates and incubated overnight. Cells were treated with the compound 2384 of the invention with or without the proteasome inhibitor MG-132 (MedChemExpress, Cat HY-13259) for 2h. Cells were harvested, and protein were extracted using complete RIPA buffer (RIPA buffer, 1 mM DTT, 1M NaF, 100 mM sodium orthovanadate, phosphatase inhibitor buffer and protease inhibitors) for 1 hour on ice. Lysate were centrifuged 15min at 12 000g at 4°C. and proteins were mixed with 4x Laemmli Sample Buffer (Bio-Rad), heated at 95 °C for 5 mins and separated by SDS PAGE (PROTEAN TGX Stain-Free Gels, Bio-Rad). Proteins were then transferred onto PVDF membrane (iBlot®2 PVDF stacks, Invitrogen) using the iBlot2 device (Invitrogen) and blocked with TBS buffer (Intercept® Blocking Buffer, LI-COR Biosciences). Primary antibodies were incubated overnight at 4°C and secondary antibodies (IRDye Infrared Dyes from LI-COR Biosciences) 1 hour at room temperature. Used primary antibody were: anti-CycK (cat#A301-939A, Bethyl Laboratories, dil. 1:1000) and anti-β-actin (cat#A5441, Sigma-Aldrich, dil. 1:5000). Membranes were scanned using a c500 Imaging System (Azure Biosystems) and densitometric quantification were performed using imaged software. Protein levels were normalized against β-actin.

T1 sequence (P08183 whole entry): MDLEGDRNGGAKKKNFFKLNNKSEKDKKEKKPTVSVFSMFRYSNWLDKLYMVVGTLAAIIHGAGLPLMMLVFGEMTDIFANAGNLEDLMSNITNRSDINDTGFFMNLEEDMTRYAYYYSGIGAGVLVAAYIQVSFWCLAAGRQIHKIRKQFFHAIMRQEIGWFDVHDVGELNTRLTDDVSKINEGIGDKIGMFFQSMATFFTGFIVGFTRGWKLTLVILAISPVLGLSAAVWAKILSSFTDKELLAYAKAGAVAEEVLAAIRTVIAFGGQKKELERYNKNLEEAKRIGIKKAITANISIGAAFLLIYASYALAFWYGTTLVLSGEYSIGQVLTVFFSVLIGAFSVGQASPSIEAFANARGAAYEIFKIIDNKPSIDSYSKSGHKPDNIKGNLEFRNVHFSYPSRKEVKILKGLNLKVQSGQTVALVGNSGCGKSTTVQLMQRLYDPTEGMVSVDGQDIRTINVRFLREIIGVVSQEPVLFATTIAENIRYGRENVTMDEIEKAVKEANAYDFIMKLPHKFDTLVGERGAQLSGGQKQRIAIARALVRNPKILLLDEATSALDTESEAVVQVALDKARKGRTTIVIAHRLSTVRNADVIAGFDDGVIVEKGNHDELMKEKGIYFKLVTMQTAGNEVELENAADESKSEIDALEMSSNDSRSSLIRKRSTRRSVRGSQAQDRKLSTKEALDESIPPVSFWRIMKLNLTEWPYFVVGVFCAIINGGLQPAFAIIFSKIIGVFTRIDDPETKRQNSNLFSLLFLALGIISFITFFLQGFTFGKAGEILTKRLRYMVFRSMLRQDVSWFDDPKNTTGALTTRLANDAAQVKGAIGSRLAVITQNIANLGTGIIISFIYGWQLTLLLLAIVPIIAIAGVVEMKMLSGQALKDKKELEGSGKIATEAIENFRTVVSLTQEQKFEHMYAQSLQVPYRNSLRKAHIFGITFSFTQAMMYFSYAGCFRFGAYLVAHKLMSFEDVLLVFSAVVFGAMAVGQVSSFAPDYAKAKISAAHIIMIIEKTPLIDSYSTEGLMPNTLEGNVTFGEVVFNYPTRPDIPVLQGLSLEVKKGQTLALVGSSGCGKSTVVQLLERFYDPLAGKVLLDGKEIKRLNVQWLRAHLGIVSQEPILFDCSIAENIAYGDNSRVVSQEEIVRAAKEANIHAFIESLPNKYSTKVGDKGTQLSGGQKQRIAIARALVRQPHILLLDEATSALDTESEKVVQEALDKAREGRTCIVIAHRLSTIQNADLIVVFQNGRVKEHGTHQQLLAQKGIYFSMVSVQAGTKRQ

SMILES	IC50 [1] [nM]	IC50 [2] [nM]	IC50 [3] [nM]	IC50 [4] [nM]	IC50 [5] [nM]	IC50 [6] [nM]	Papp at 5 h, 50 µM [7] [nm/s]	efflux ratio at 60 min, 5 µM [8]	Papp A→B at 60 min, 5 µM [8] [nm/s]	Papp B→A at 60 min, 5 µM [8] [nm/s]	MDR1 efflux potential ([8]; in words)	efflux ratio at 60 min, 5 µM [9]	Papp A→B at 60 min, 5 µM [9] [nm/s]	Papp B→A at 60 min, 5 µM [9] [nm/s]	BCRP efflux potential ([9]; in words)	IC50 [10] [nM]	IC50 [11] [nM]	IC50 [12] [nM]	IC50 [13] [nM]	CycK protein content [14]
CN(CCN)c1nc(NCc2ccc(-c3ccccn3)cc2)n2ncc(Br)c2n1 [Compound 2600]	0.29	1.32	0.19	1.18	1.69	1.17	900	28.9	20.5	593	low level	2.1	224	471	low level	1.48	1.16	0.28	12.2	–
NC[C@H]1CC[C@H](Nc2nc(NCc3ccc(-c4ccccn4)cc3)n3ncc(Br)c3n2)CC1 [Compound 2636]	1.46	2.46	0.12	3.68	0.17	1.97	670	–	< 129	308	–	6.21	30	186	–	8.1	4.68	1.28	33.1	–
N[C@H]1CCCC[C@@H]1Nc1nc(NCc2ccc(-c3ccccn3)cc2)n2ncc(Br)c2n1 [Compound 2671]	1.74	1.47	–	3.34	0.42	2.22	1760	43.7	9.9	432	–	4.54	101	460	–	7.6	–	–	–	–
CN(C)C/C=C/C(=O)Nc1ccc(C(=O)N2CCC[C@@H](Nc3ncc(Cl)c(-c4c[nH]c5ccccc45)n3)C2)cc1 [THZ-531, reference compound]	–	–	–	–	–	–	–	–	–	–	–	–	–	–	–	–	–	–	–	no impact on CycK protein content
